Values after ≈ are worked out from the molar mass of the structure shown.
Assays:
Bacopa monnieri [1] = experiment: Toxicity against Bacopa monnieri assessed as change in leaf colour at 50 ug/ml after 15 days by Bacopa sensor test; assay type: organism-based; conditions: in vivo, 360 h
WRL68 [2] = experiment: Cytotoxic activity against Homo sapiens (human) WRL68 cells incubated for 4 hr followed by compound wash-out measured after doubling time by MTT assay; assay type: functional, cell-based
Bacopa monnieri [3] = experiment: Toxicity against Bacopa monnieri assessed as shoot elongation at 50 ug/ml after 15 days by Bacopa sensor test (reference value: 0.8 cm); assay type: organism-based; conditions: in vivo, 360 h
Bacopa monnieri [4] = experiment: Toxicity against Bacopa monnieri assessed as number of shoots at 50 ug/ml after 15 days by Bacopa sensor test (reference value: 2); assay type: organism-based; conditions: in vivo, 360 h
Caco-2 [5] = experiment: Cytotoxic activity against Homo sapiens (human) Caco2 cells by clonogenic assay; assay type: functional, cell-based
PA-1 [6] = experiment: Cytotoxic activity against Homo sapiens (human) PA1 cells by clonogenic assay; assay type: functional, cell-based
WRL68 [7] = experiment: Cytotoxic activity against Homo sapiens (human) WRL68 cells by clonogenic assay; assay type: functional, cell-based
COLO 320 [8] = experiment: Cytotoxic activity against Homo sapiens (human) COLO320 cells incubated for 4 hr followed by compound wash-out measured after doubling time by MTT assay; assay type: functional, cell-based
Bacopa monnieri [9] = experiment: Toxicity against Bacopa monnieri assessed as number of leaves at 50 ug/ml after 15 days by Bacopa sensor test (reference value: 6); assay type: organism-based; conditions: in vivo, 360 h
Caco-2 [10] = experiment: Cytotoxic activity against Homo sapiens (human) Caco2 cells incubated for 4 hr followed by compound wash-out measured after doubling time by MTT assay; assay type: functional, cell-based
COLO 320 [11] = experiment: Cytotoxic activity against Homo sapiens (human) COLO320 cells by clonogenic assay; assay type: functional, cell-based
MCF7 [12] = experiment: Cytotoxic activity against Homo sapiens (human) MCF7 cells by clonogenic assay; assay type: functional, cell-based
PA-1 [13] = experiment: Cytotoxic activity against Homo sapiens (human) PA1 cells incubated for 4 hr followed by compound wash-out measured after doubling time by MTT assay; assay type: functional, cell-based
Bacopa monnieri [14] = experiment: Toxicity against Bacopa monnieri assessed as number of roots at 50 ug/ml after 15 days by Bacopa sensor test (reference value: 2); assay type: organism-based; conditions: in vivo, 360 h
MCF7 [15] = experiment: Cytotoxic activity against Homo sapiens (human) MCF7 cells incubated for 4 hr followed by compound wash-out measured after doubling time by MTT assay; assay type: functional, cell-based
COLO 320 [16] = experiment: Ratio of vinblastine IC50 to compound IC50 for Homo sapiens (human) COLO320 cells by MTT assay; assay type: functional
WRL68 [17] = experiment: Ratio of vinblastine IC50 to compound IC50 for Homo sapiens (human) WRL68 cells by MTT assay; assay type: functional
Caco-2 [18] = experiment: Ratio of vinblastine IC50 to compound IC50 for Homo sapiens (human) Caco2 cells by MTT assay; assay type: functional
[19] = Homo sapiens, WRL68, 4 h, read-out: IC50
[20] = Homo sapiens, COLO 320, 4 h, read-out: IC50
[21] = Homo sapiens, Caco-2, 4 h, read-out: IC50
[22] = Homo sapiens, PA-1, 4 h, read-out: IC50
[23] = Homo sapiens, MCF7, 4 h, read-out: IC50

Structure (SMILES)	Activity (Bacopa monnieri [1])	IC50 (WRL68 [2]; [19]) [µg/mL]	Activity (Bacopa monnieri [3]) [cm]	Activity (Bacopa monnieri [4])	IC50 (Caco-2 [5]) [µg/mL]	IC50 (PA-1 [6]) [µg/mL]	IC50 (WRL68 [7]) [µg/mL]	IC50 (COLO 320 [8]; [20]) [µg/mL]	Activity (Bacopa monnieri [9])	IC50 (Caco-2 [10]; [21]) [µg/mL]	IC50 (COLO 320 [11]) [µg/mL]	IC50 (MCF7 [12]) [µg/mL]	IC50 (PA-1 [13]; [22]) [µg/mL]	Activity (Bacopa monnieri [14])	IC50 (MCF7 [15]; [23]) [µg/mL]	IC50 (Caco-2 [10]; caco-2)	other results
COC(=O)C1=CO[C@@H](O[C@@H]2O[C@H](COC(=O)c3cccc([N+](=O)[O-])c3)[C@@H](OC(C)=O)[C@H](OC(C)=O)[C@H]2OC(C)=O)[C@@H]2[C@@H](C)[C@@H](OC(C)=O)C[C@H]12	Non-toxic	3.2 (≈ 4.52 µM)	0.8	2	5.42 (≈ 7.66 µM)	2.65 (≈ 3.74 µM)	6.5 (≈ 9.19 µM)	0.44 (≈ 0.622 µM)	6	1 (≈ 1.41 µM)	8.2 (≈ 11.6 µM)	3.42 (≈ 4.83 µM)	0.85 (≈ 1.2 µM)	2	1.25 (≈ 1.77 µM)	–	–
COC(=O)C1=CO[C@@H](O[C@@H]2O[C@H](CO)[C@@H](OC(C)=O)[C@H](OC(C)=O)[C@H]2OC(C)=O)[C@@H]2[C@@H](C)[C@@H](OC(C)=O)C[C@H]12	–	–	–	–	–	–	–	–	–	–	–	–	–	–	–	Not Active	IC50 (WRL68 [2]; wrl68): Not Active; IC50 (COLO 320 [8]; colo 320): Not Active; IC50 (PA-1 [13]; pa-1): Not Active; IC50 (MCF7 [15]; mcf7): Not Active
CCC(=O)OC[C@H]1O[C@@H](O[C@@H]2OC=C(C(=O)OC)[C@H]3C[C@H](OC(C)=O)[C@H](C)[C@@H]23)[C@H](OC(C)=O)[C@@H](OC(C)=O)[C@@H]1OC(C)=O	Non-toxic	2.65 (≈ 4.31 µM)	0.65	2	4.88 (≈ 7.94 µM)	2.85 (≈ 4.64 µM)	8.4 (≈ 13.7 µM)	0.85 (≈ 1.38 µM)	4	2.85 (≈ 4.64 µM)	4.86 (≈ 7.91 µM)	4.26 (≈ 6.93 µM)	1.24 (≈ 2.02 µM)	2	1.88 (≈ 3.06 µM)	–	–
CCCCCCCCCCCC(=O)OC[C@H]1O[C@@H](O[C@@H]2OC=C(C(=O)OC)[C@H]3C[C@H](OC(C)=O)[C@H](C)[C@@H]23)[C@H](OC(C)=O)[C@@H](OC(C)=O)[C@@H]1OC(C)=O	Non-toxic	0.85 (≈ 1.15 µM)	0	2	1.24 (≈ 1.67 µM)	0.42 (≈ 0.567 µM)	2.62 (≈ 3.54 µM)	0.04 (≈ 0.054 µM)	6	0.42 (≈ 0.567 µM)	0.24 (≈ 0.324 µM)	0.75 (≈ 1.01 µM)	0.15 (≈ 0.202 µM)	3	0.24 (≈ 0.324 µM)	–	Ratio IC50 (COLO 320 [16]): 13; Ratio IC50 (WRL68 [17]): 2
CCCCCCCCCCCCCC(=O)OC[C@H]1O[C@@H](O[C@@H]2OC=C(C(=O)OC)[C@H]3C[C@H](OC(C)=O)[C@H](C)[C@@H]23)[C@H](OC(C)=O)[C@@H](OC(C)=O)[C@@H]1OC(C)=O	–	58.5 (≈ 76.1 µM)	–	–	–	–	–	30 (≈ 39 µM)	–	–	–	–	6.5 (≈ 8.45 µM)	–	24.6 (≈ 32 µM)	Not Active	–
CCCCCCCCCCCCCCCC(=O)OC[C@H]1O[C@@H](O[C@@H]2OC=C(C(=O)OC)[C@H]3C[C@H](OC(C)=O)[C@H](C)[C@@H]23)[C@H](OC(C)=O)[C@@H](OC(C)=O)[C@@H]1OC(C)=O	–	–	–	–	–	–	–	–	–	–	–	–	–	–	–	Not Active	IC50 (WRL68 [2]; wrl68): Not Active; IC50 (COLO 320 [8]; colo 320): Not Active; IC50 (PA-1 [13]; pa-1): Not Active; IC50 (MCF7 [15]; mcf7): Not Active
C=CC(=O)OC[C@H]1O[C@@H](O[C@@H]2OC=C(C(=O)OC)[C@H]3C[C@H](OC(C)=O)[C@H](C)[C@@H]23)[C@H](OC(C)=O)[C@@H](OC(C)=O)[C@@H]1OC(C)=O	–	–	–	–	–	–	–	–	–	–	–	–	–	–	–	Not Active	IC50 (WRL68 [2]; wrl68): Not Active; IC50 (COLO 320 [8]; colo 320): Not Active; IC50 (PA-1 [13]; pa-1): Not Active; IC50 (MCF7 [15]; mcf7): Not Active
COC(=O)C1=CO[C@@H](O[C@@H]2O[C@H](COC(=O)C=C(C)C)[C@@H](OC(C)=O)[C@H](OC(C)=O)[C@H]2OC(C)=O)[C@@H]2[C@@H](C)[C@@H](OC(C)=O)C[C@H]12	Non-toxic	1.2 (≈ 1.87 µM)	0.4	2	6.2 (≈ 9.68 µM)	1.84 (≈ 2.87 µM)	3.86 (≈ 6.03 µM)	0.08 (≈ 0.125 µM)	6	0.8 (≈ 1.25 µM)	2.84 (≈ 4.43 µM)	4.65 (≈ 7.26 µM)	0.65 (≈ 1.01 µM)	2	1 (≈ 1.56 µM)	–	–
COC(=O)C1=CO[C@@H](O[C@@H]2O[C@H](COC(=O)c3cc(OC)c(OC)c(OC)c3)[C@@H](OC(C)=O)[C@H](OC(C)=O)[C@H]2OC(C)=O)[C@@H]2[C@@H](C)[C@@H](OC(C)=O)C[C@H]12	Non-toxic	0.54 (≈ 0.717 µM)	0.4	2	0.46 (≈ 0.611 µM)	0.45 (≈ 0.598 µM)	1.2 (≈ 1.59 µM)	0.04 (≈ 0.0531 µM)	4	0.06 (≈ 0.0797 µM)	0.12 (≈ 0.159 µM)	0.72 (≈ 0.957 µM)	0.1 (≈ 0.133 µM)	2	0.25 (≈ 0.332 µM)	–	Ratio IC50 (COLO 320 [16]): 13; Ratio IC50 (Caco-2 [18]): 8; Ratio IC50 (WRL68 [17]): 3
COC(=O)C1=CO[C@@H](O[C@@H]2O[C@H](COC(c3ccccc3)(c3ccccc3)c3ccccc3)[C@@H](O)[C@H](O)[C@H]2O)[C@@H]2[C@@H](C)[C@@H](O)C[C@H]12 [6'-O-TRITYL LOGANIN]	Non-toxic	1.86 (≈ 2.94 µM)	0.4	2	2.54 (≈ 4.01 µM)	2.42 (≈ 3.82 µM)	4.2 (≈ 6.64 µM)	0.25 (≈ 0.395 µM)	6	0.56 (≈ 0.885 µM)	1.4 (≈ 2.21 µM)	2.8 (≈ 4.43 µM)	0.65 (≈ 1.03 µM)	2	1 (≈ 1.58 µM)	–	–
COc1cccc2c1C(=O)c1c(O)c3c(c(O)c1C2=O)C[C@@](O)(C(=O)CO)C[C@@H]3O[C@H]1C[C@H](N)[C@H](O)[C@H](C)O1 [DOXORUBICIN]	Toxic	–	0.2	1	–	–	–	–	2	–	–	–	–	0	–	–	–
COC(=O)C1=CO[C@@H](O[C@@H]2O[C@H](CO)[C@@H](O)[C@H](O)[C@H]2O)[C@@H]2[C@@H](C)[C@@H](O)C[C@H]12 [LOGANIN]	Non-toxic	1.86 (≈ 4.76 µM)	0.4	2	3.45 (≈ 8.84 µM)	4.85 (≈ 12.4 µM)	3.2 (≈ 8.2 µM)	1 (≈ 2.56 µM)	6	1.28 (≈ 3.28 µM)	2.2 (≈ 5.64 µM)	6.45 (≈ 16.5 µM)	1.45 (≈ 3.71 µM)	2	4.85 (≈ 12.4 µM)	–	–
CC[C@]1(O)C[C@@H]2CN(CCc3c([nH]c4ccccc34)[C@@](C(=O)OC)(c3cc4c(cc3OC)N(C)[C@H]3[C@@](O)(C(=O)OC)[C@H](OC(C)=O)[C@]5(CC)C=CCN6CC[C@]43[C@@H]65)C2)C1 [VINBLASTINE]	Non-toxic	–	0.6	2	2.8 (≈ 3.45 µM)	0.15 (≈ 0.185 µM)	–	0.52 (≈ 0.641 µM)	6	0.46 (≈ 0.567 µM)	1.6 (≈ 1.97 µM)	–	0.03 (≈ 0.037 µM)	2	–	–	–
